The source of these data is patent publication US20230365537A1, “POLO LIKE KINASE 4 INHIBITORS” (ORIC Pharmaceuticals, Inc., priority 2021, published 2023).

Broadly, the IC50 is the concentration that inhibits the measured activity by half.

The target in assay [1] is human recombinant PLK4 (Homo sapiens (Human), UniProt O00444). As to the kind of experiment: PLK4 Biochemical Assay (ADP-Glo). The following applies: 0.5 nM PLK4, 8.0 µM ATP, 4.7 µM MBP, 6 hours at RT. An outline of the steps: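 Recombinant human PLK4 (added at 1.0 nM) was preincubated 15 min at RT with compound in 50 mM HEPES pH 7.5, 10 mM MgCl2, 1 mM EGTA, 1 mM DTT, 0.01% Brij-35, 0.01% BSA. ADP formed was detected by ADP-Glo luminescence (40 min ATP depletion, 30 min detection). IC50 came from a four-parameter fit.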
(In ADP-Glo the light output rises with the ADP produced.)

Assay [2] relates to CHP-134 cells. The assay can be described thus: CHP134 CellTiter-Glo (CTG) Assay. The class given is cell-based. The following applies: Homo sapiens, 5 days, viable cells by CellTiter-Glo. How it is done: Cells were seeded (200 cells/well) in 384-well plates for 16 hours. On day two, nine serial 1:3 compound dilutions were made in DMSO in a 96-well plate. The compounds were then further diluted into growth media using a BRAVO robot (Agilent, Santa Clara, CA). The diluted compounds were then added to quadruplicate wells in the 384-well cell plate and incubated at 37° C. and 5% CO2. After 5 days, relative numbers of viable cells were measured by luminescence using CellTiter-Glo® (Promega) according to the manufacturer’s instructions and read on a SPARK Multimode Microplate Reader (Tecan, Mannedorf Switzerland). The IC50 calculations for the values reported in Table 2 were carried out using Prism 6.0 software (GraphPad, San Diego).
Background: In ATP-based viability assays light output follows the ATP content of the culture.

For assay [3], the target named is human recombinant Aurora A (Homo sapiens (Human), UniProt O14965). The assay can be described thus: Aurora A Kinase Biochemical Assay (ADP-Glo). The settings on record: ratio of Aurora A IC50 to PLK4 IC50 (selectivity).
Assay [4] addresses human recombinant Aurora B (Homo sapiens (Human), UniProt Q96GD4). As to the kind of experiment: Aurora B Kinase Biochemical Assay (ADP-Glo). The following applies: ratio of Aurora B IC50 to PLK4 IC50 (selectivity). An outline of the steps: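 Recombinant human Aurora B (20 nM in pH 7.5 HEPES buffer with MgCl2, EGTA, DTT, Brij-35, BSA) preincubated with compound 15 min at RT. ADP formed quantified by ADP-Glo luminescence after ATP depletion (40 min) and detection (30 min). IC50 from four-parameter non-linear regression.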

Sequence of human recombinant Aurora B (Q96GD4 whole entry): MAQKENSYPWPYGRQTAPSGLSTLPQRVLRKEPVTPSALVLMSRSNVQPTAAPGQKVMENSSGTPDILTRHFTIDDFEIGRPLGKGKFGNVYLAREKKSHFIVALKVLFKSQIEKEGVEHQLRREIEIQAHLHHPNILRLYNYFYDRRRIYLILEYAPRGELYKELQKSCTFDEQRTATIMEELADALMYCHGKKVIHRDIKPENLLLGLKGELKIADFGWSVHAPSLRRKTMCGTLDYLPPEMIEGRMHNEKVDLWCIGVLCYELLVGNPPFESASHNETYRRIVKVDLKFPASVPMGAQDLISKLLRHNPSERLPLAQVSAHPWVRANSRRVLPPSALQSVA
Sequence of human recombinant Aurora A (O14965 whole entry): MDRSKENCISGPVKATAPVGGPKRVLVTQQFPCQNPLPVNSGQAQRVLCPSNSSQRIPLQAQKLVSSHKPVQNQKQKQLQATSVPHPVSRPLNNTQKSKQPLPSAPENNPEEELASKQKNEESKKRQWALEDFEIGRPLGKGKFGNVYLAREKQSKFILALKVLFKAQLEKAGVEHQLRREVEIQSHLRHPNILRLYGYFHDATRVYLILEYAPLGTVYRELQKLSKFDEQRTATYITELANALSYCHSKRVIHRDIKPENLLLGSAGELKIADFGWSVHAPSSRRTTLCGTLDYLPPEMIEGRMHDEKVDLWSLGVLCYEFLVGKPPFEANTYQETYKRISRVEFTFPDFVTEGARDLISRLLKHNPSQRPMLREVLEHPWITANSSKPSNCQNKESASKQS
Sequence of human recombinant PLK4 (O00444 whole entry): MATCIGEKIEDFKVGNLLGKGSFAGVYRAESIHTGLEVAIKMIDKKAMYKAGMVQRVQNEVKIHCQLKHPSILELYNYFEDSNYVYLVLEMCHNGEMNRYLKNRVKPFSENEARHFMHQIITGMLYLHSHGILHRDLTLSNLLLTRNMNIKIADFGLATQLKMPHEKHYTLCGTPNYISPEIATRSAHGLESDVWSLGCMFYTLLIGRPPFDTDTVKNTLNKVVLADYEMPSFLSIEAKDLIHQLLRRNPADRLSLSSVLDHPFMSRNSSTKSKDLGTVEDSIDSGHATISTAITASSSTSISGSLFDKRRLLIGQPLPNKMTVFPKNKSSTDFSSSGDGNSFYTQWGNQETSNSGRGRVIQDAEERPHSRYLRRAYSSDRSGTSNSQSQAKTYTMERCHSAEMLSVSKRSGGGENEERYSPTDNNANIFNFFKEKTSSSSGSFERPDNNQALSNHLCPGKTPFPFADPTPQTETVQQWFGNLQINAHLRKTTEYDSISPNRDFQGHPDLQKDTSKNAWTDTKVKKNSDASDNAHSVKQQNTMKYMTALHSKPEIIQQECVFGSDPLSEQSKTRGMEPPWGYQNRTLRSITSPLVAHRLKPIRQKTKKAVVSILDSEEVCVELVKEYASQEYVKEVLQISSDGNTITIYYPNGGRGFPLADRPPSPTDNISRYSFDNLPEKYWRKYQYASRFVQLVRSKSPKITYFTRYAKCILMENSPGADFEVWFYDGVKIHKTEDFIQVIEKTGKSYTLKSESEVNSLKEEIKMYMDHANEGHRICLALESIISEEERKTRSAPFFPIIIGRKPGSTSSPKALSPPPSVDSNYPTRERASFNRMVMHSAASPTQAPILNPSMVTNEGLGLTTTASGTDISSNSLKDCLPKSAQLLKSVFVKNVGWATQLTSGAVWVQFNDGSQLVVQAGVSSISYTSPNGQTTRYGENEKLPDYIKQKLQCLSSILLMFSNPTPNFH

In the case of `COc1ccc2c(c1)[C@]1(C[C@H]1c1ccc3c(Nc4nc(C#N)nc(N5CCOCC5)c4OC)n[nH]c3c1)C(=O)N2` [Example 61, 5-methoxy-4-({6-[(1R,2S)-5′-methoxy-2′-oxo-1’,2′-dihydrospiro[cyclopropane-1,3′-indol]-2-yl]-1H-indazol-3-yl}amino)-6-(morpholin-4-yl)pyrimidme-2-carbonitrile], the IC50 came out at 9.74 nM in assay [1] and 2380 nM in assay [2] (120 h). The “[Aurora A IC50 (nM)]/[PLK4 IC50 (nM)]” value in assay [3] worked out at 588.8148. Also, the “[Aurora B IC50 (nM)]/[PLK4 IC50 (nM)]” value in assay [4] came to 955.0539.
Take `COc1ccc2c(c1)[C@]1(C[C@H]1c1ccc3c(Nc4nc(C#N)nc(N5CCS(=O)(=O)CC5)c4OC)n[nH]c3c1)C(=O)N2` [Example 62, 4-(l,l-dioxidothiomorpholino)-5-methoxy-6-((6-((lR,2S)-5′-methoxy-2′-oxospiro[cyclopropane-1,3′-indolin]-2-yl)-1H-indazol-3-yl)amino)pyrimidine-2-carbonitrile]: the IC50 came to 16.9 nM in assay [1] and 10000 nM in assay [2] (CHP-134, 120 h). The “[Aurora A IC50 (nM)]/[PLK4 IC50 (nM)]” value in assay [3] was 540.9225. Moreover, the “[Aurora B IC50 (nM)]/[PLK4 IC50 (nM)]” value in assay [4] stood at 946.7771.
On the same counts, the results for `COc1ccc2c(c1)[C@]1(C[C@H]1c1ccc3c(Nc4nc(C)nc(N5C[C@@H](C)O[C@@H](C)C5)c4OC)n[nH]c3c1)C(=O)N2` [Example 67, (1R,2S)-2-[3-({6-[(2R,6S)-2,6-dimethylmorpholin-4-yl]-5-methoxy-2-methylpyrimidin-4-yl}amino)-1H-indazol-6-yl]-5′-methoxyspiro[cyclopropane-1,3′-indol]-2′(1′H)-one] are 1.34 nM, 4390 nM, 4976.155 and 499.9255.
On the same counts, the results for `COc1ccc2c(c1)[C@]1(C[C@H]1c1ccc3c(Nc4nc(CCO)nc(N5CCOCC5)c4OC)n[nH]c3c1)C(=O)N2` [Example 68, (1R,2S)-2-(3-{[2-(2-hydroxyethyl)-5-methoxy-6-(morpholin-4-yl)pyrimidin-4-yl]amino}-1H-indazol-6-yl)-5′-methoxyspiro[cyclopropane-1,3′-indol]-2′(1′H)-one] are 7.38 nM, 2480 nM, 4761.518 and 1347.967.
`COc1ccc2c(c1)[C@]1(C[C@H]1c1ccc3c(Nc4nc(C5CC5)nc(N5CCS(=O)(=O)CC5)c4OC)n[nH]c3c1)C(=O)N2` [Example 69, 4-[2-cyclopropyl-5-methoxy-6-({6-[(1R,2S)-5′-methoxy-2′-oxo-1’,2′-dihydrospiro[cyclopropane-1,3′-indol]-2-yl]-1H-indazol-3-yl}amino)pyrimidin-4-yl]-1λ6-thiomorpholine-1,1-dione]: the IC50 in assay [1] is 2.98 nM; in assay [2] (CHP-134, 120 h), 686 nM. Also, the “[Aurora A IC50 (nM)]/[PLK4 IC50 (nM)]” value in assay [3] was 1785.978. In assay [4], the “[Aurora B IC50 (nM)]/[PLK4 IC50 (nM)]” value amounted to 480.7112.
On to `COc1ccc2c(c1)[C@]1(C[C@H]1c1ccc3c(Nc4nc(C5CC5)nc(N5CCS(=O)(=O)CC5)c4Cl)n[nH]c3c1)C(=O)N2` [Example 70, 4-[5-chloro-2-cyclopropyl-6-({6-[(1R,2S)-5′-methoxy-2′-oxo-1′,2′-dihydrospiro[cyclopropan-1,3′-indol]-2-yl]-1H-indazol-3-yl}amino)pyrimidin-4-y1]-1λ6-thiomorpholine-1,1-dione], for which the IC50 was 1.1 nM in assay [1] and 80.3 nM in assay [2] (CHP-134, 120 h). Besides, the “[Aurora A IC50 (nM)]/[PLK4 IC50 (nM)]” value in assay [3] was determined as 1376.93. Further, the “[Aurora B IC50 (nM)]/[PLK4 IC50 (nM)]” value in assay [4] turned out to be 512.7157.
Take `COc1ccc2c(c1)[C@]1(C[C@H]1c1ccc3c(Nc4nc(C)cnc4OC)n[nH]c3c1)C(=O)N2` [Example 71, (1R,2S)-5′-methoxy-2-{3-[(3-methoxy-6-methylpyrazin-2-yl)amino]-1H-indazol-6-yl}spiro[cyclopropane-1,3′-indol]-2′(1′H)-one]: the half-maximal inhibitory concentration (IC50) in assay [1] came to 3.06 nM; in assay [2] (CHP-134, 120 h), 989 nM. The “[Aurora A IC50 (nM)]/[PLK4 IC50 (nM)]” value in assay [3] was 420.9667. In addition, the “[Aurora B IC50 (nM)]/[PLK4 IC50 (nM)]” value in assay [4] was determined as 38.67.
In the case of `COc1ccc2c(c1)[C@]1(C[C@H]1c1ccc3c(Nc4nc(C)nc(N5CC(O)C5)c4Cl)n[nH]c3c1)C(=O)N2` [Example 72, (1R,2S)-2-(3-{[5-chloro-6-(3-hydroxyazetidin-1-yl)-2-methylpyrimidin-4-yl]amino)-1H-indazol-6-yl)-5′-methoxyspiro[cyclopropane-1,3′-indol]-2′(1′H)-one], the IC50 was found to be 0.997 nM in assay [1] and 42.7 nM in assay [2] (CHP-134, 120 h). Moreover, the “[Aurora A IC50 (nM)]/[PLK4 IC50 (nM)]” value in assay [3] was found to be 2006.018. Besides, the “[Aurora B IC50 (nM)]/[PLK4 IC50 (nM)]” value in assay [4] was 405.2156.
As to `COc1ccc2c(c1)[C@]1(C[C@H]1c1ccc3c(Nc4nc(C)nc(N5CC(O)C5)c4OC)n[nH]c3c1)C(=O)N2` [Example 73, (1R,2S)-2-(3-{[6-(3-hydroxyazetidin-l-yl)-5-methoxy-2-methylpyrimidin-4-yl]amino}-1H-indazol-6-yl)-5′-methoxyspiro[cyclopropane-1,3′-indol]-2′(1′H)-one], the IC50 in assay [1] turned out to be 7.04 nM; in assay [2] (CHP-134, 120 h), 10000 nM. The “[Aurora A IC50 (nM)]/[PLK4 IC50 (nM)]” value in assay [3] worked out at 3290.277. Further, in assay [4], the “[Aurora B IC50 (nM)]/[PLK4 IC50 (nM)]” value is 346.7708.
On the same counts, the results for `COc1ccc2c(c1)[C@]1(C[C@H]1c1ccc3c(Nc4nc(C5CC5)nc(N5CC(O)C5)c4Cl)n[nH]c3c1)C(=O)N2` [Example 76, (1R,2S)-2-(3-{[5-chloro-2-cyclopropyl-6-(3-hydroxyazetidin-1-yl)pyrimidin-4-yl]amino)-1H-indazol-6-yl)-5′-methoxyspiro[cyclopropane-1,3′-indol]-2′(1′H)-one] are 0.434 nM, 93.5 nM, 3304.147 and 535.4839.
As for `COc1ccc2c(c1)[C@]1(C[C@H]1c1ccc3c(Nc4nc(C5CC5)nc(N5C[C@@H](C)O[C@@H](C)C5)c4OC)n[nH]c3c1)C(=O)N2` [Example 77, (1R,2S)-2-[3-({2-cyclopropyl-6-[(2R,6S)-2,6-dimethylmorpholin-4-yl]-5-methoxypyrimidin-4-yl}amino)-1H-indazol-6-yl]-5′-methoxyspiro[cydopropane-1,3′-indol]-2′(1′H)-one], the 50% inhibitory concentration (IC50) in assay [1] stood at 1.76 nM; in assay [2] (CHP-134, 120 h), 725 nM. In addition, in assay [3], the “[Aurora A IC50 (nM)]/[PLK4 IC50 (nM)]” value was determined as 6738.759. Also, the “[Aurora B IC50 (nM)]/[PLK4 IC50 (nM)]” value in assay [4] is 1577.689.
`COc1ccc2c(c1)[C@]1(C[C@H]1c1ccc3c(Nc4nc(C(C)C)nc(N5CCS(=O)(=O)CC5)c4Cl)n[nH]c3c1)C(=O)N2` [Example 78, (1R,2S)-2-(3-((5-chloro-6-(1,1-dioxidothiomorpholino)-2-isopropylpyrimidin4-yl)amino)-1H-indazol-6-yl)-5′-methoxyspiro[cyclopropane-1,3′-indolin]-2′-one]: the IC50 is 0.35 nM in assay [1] and 61.4 nM in assay [2] (CHP-134, 120 h). Also, the “[Aurora A IC50 (nM)]/[PLK4 IC50 (nM)]” value in assay [3] was found to be 5660. Further, the “[Aurora B IC50 (nM)]/[PLK4 IC50 (nM)]” value in assay [4] is 1778.857.
Consider `COc1ccc2c(c1)[C@]1(C[C@H]1c1ccc3c(Nc4nc(C5CC5)cnc4OC)n[nH]c3c1)C(=O)N2.O=C(O)C(F)(F)F` [Example 80, (1R,2S)-2-{3-[(6-cyclopropyl-3-methorypyrazin-2-yl)amino]-1H-indazol-yl}-5′-metboxyspiro[cyclopropane-1,3′-indol]-2′(1′H)-one], for which the IC50 was determined as 2.37 nM in assay [1] and 294 nM in assay [2] (CHP-134, 120 h). Further, the “[Aurora A IC50 (nM)]/[PLK4 IC50 (nM)]” value in assay [3] was 346.5116. Moreover, the “[Aurora B IC50 (nM)]/[PLK4 IC50 (nM)]” value in assay [4] was 54.12.
As for `COc1ccc2c(c1)[C@]1(C[C@H]1c1ccc3c(Nc4nc(C5CC5)nc(N5CC(O)C5)c4OC)n[nH]c3c1)C(=O)N2.O=C(O)C(F)(F)F` [Example 81, (1R,2S)-2-(3-{[2-cyclopropyl-6-(3-hydroxyazetidin-1-yl)-5-methoxypyrimidin-4-yl]amino}-1H-indazol-6-yl)-5′-methoxyspiro[cyclopropane-1,3′-indol]-2′(1′H)-one], the half-maximal inhibitory concentration (IC50) in assay [1] stood at 3.63 nM; in assay [2] (CHP-134, 120 h), 965 nM. Further, the “[Aurora A IC50 (nM)]/[PLK4 IC50 (nM)]” value in assay [3] is given as 1478.393. Also, the “[Aurora B IC50 (nM)]/[PLK4 IC50 (nM)]” value in assay [4] is on record as 220.4239.
In the case of `COc1ccc2c(c1)[C@]1(C[C@H]1c1ccc3c(Nc4nc(C(C)C)cnc4OC)n[nH]c3c1)C(=O)N2` [Example 83, (1R,2S)-5′-methoxy-2-(3-{[3-methoxy-6-(propan-2-yl)pyrazin-2-yl]amino}-1H-indazol-6-yl)spiro[cyclopropane-1,3′-indol]-2′(1′H)-one], the IC50 in assay [1] was found to be 2.24 nM; in assay [2] (CHP-134, 120 h), 277 nM. The “[Aurora A IC50 (nM)]/[PLK4 IC50 (nM)]” value in assay [3] was found to be 908.4004. Also, the “[Aurora B IC50 (nM)]/[PLK4 IC50 (nM)]” value in assay [4] is given as 333.3333.
